# From publication PMC6678097, “Machilin A Inhibits Tumor Growth and Macrophage M2 Polarization Through the Reduction of Lactic Acid” (Cancers, 2019)
# Tests used:
# [1] = target: T1, purified recombinant LDHA (Homo sapiens, UniProt P00338); assay: In vitro LDH activity assay with purified recombinant LDHA; assay type: biochemical; conditions: up to a concentration of 1 mM
# T1 construct: made in house
# Protocol: A purification of recombinant LDHA was performed as described previously. LDH activity was determined by measuring the decrease of absorbance at 340 nm due to the oxidation of NADH in 20 mM HEPES-K^+, 0.05% bovine serum albumin (BSA), 20 μM NADH, and 2 mM pyruvate (Sigma-Aldrich, St. Louis, MO, USA) at a pH of 7.2 using a spectrofluorometer (Spectramax M2, Molecular Devices, San Jose, CA, USA; excitation 340 nm; emission 460 nm), as described previously. Ten nanograms of recombinant LDHA protein were used in the in vitro LDH activity assay. One microgram of total protein from cell or tissue lysates was used for intracellular or in vivo LDH assays.
# LDHA [2] = target: LDHA (Homo sapiens, UniProt P00338); assay: Isothermal titration calorimetry (ITC) of LDHA and NADH; design: Full-length LDHA (residues 1–331) was obtained from cDNA by polymerase chain reaction (PCR); inferred from pET-28a vector and Ni-NTA purification; made in house; host or cells: E. coli BL21 (DE3); conditions: 25 °C, read-out: apparent KD of binding to LDHA
# Protocol: compounds. The acquisition time was 1.704 sec, relaxation delay was 1.5 sec and 128 transient were collected. Lactate was quantified using Chenomx NMR Suite 7.1 professional with the Chenomx 600 MHz library database (Chenomx Inc., Edmonton, Alberta, Canada, ).
# 1.4. Isothermal Titration Calorimetry
# Isothermal titration calorimetry (ITC) measurements were carried out using MicroCal auto_iTC200 (GE healthcare, Chicago, IL, USA) at 25 °C. The purified LDHA protein was dialyzed in buffer containing 50 mM Tris-HCl (pH 8.0) and 200 mM NaCl at a concentration of 0.1 mM. NADH was solubilized in the same buffer at concentrations of 1 to 2 mM. The NADH was titrated into the LDHA solution onto an ITC200 microcalorimeter cell. The raw data were integrated and normalized using MicroCal Origin 7.0 software (GE healthcare). The determined binding affinity (KA) and enthalpy changes (ΔH) values were used to calculate ΔS from the standard thermodynamic equation.
# For generation of bone marrow-derived macrophage (BMDM), bone marrow cells were extracted from C57BL/6 mice by surgery, and treated with M-CSF (10ng/ml) for 7days. BMDM cells were incubated with the indicated concentration of culture media with MA and lactate or not. The cells were washed with phosphate buffered saline (PBS) and fixed in 3.7% formaldehyde in PBS for 1h. […]
# [3] = target: T2, purified recombinant human LDHA (rhLDHA) (Homo sapiens, UniProt P00338); assay: NADH binding assay (LDHA binding to Cibacron Blue 3GA agarose); conditions: machilin A 10 and 100 μM; NADH positive control
# T2 construct: made in house
# Protocol: An NADH binding assay was performed as described previously. The NADH binding ability of LDHA was determined by measuring the affinity of LDHA to agarose-immobilized Cibacron Blue 3GA, which resembles NADH. Then, 400 ng of purified recombinant human LDHA (rhLDHA) was incubated with NADH or MA, followed by incubation with 30 µL of Cibacron Blue agarose at 4 °C for 2 h. After a washing step with 20 mM Tris-HCl (pH 8.6), LDHA bound to beads was eluted in PBS using a sodium dodecyl sulfate (SDS) gel running buffer and was then subjected to–SDS-polyacrylamide gel electrophoresis (SDS-PAGE) and western blotting. Standardized amounts of protein were used in each reaction.
# LDHA [4] = test system: LDHA; design: method as in PMID 30850682; conditions: through reducing its binding to substrate, pyruvate; cited from earlier work
structure (smiles),measurement,setting,value
"c1ccc2c(c1)OCO2 [1,3-benzodioxole, reference compound]",effect on LDHA activity,[1],did not affect LDHA activity
"OCc1ccc2c(c1)OCO2 [piperonyl alcohol, reference compound]",effect on LDHA activity,[1],did not affect LDHA activity
"NC(=O)C1=CN(C2OC(COP(=O)(O)OP(=O)(O)OCC3OC(n4cnc5c(N)ncnc54)C(O)C3O)C(O)C2O)C=CC1 (centres unmarked) [NADH, 1,4-dihydronicotinamide adenine dinucleotide, reference compound]",Kd,LDHA [2],10 µM
same,LDHA binding to Cibacron Blue Agarose beads (NADH mimic),[3],prohibited LDHA binding
"FC(F)(F)c1ccc([Se]c2ccccc2)cc1 [PSTMB, 1-(phenylseleno)-4-(trifluoromethyl)benzene]",effect on LDHA activity,LDHA [4],inhibited LDHA activity
